# Test system: HCT116 tumor
# Experiment: Tumor growth inhibition in HCT116 tumor heterotopic transplantation mouse model
# Assay type: in vivo
# Details: HCT116 subcutaneous tumor in mice, FIG. 6
# Protocol: The experiment was carried out to detect a tumor growth inhibition effect of a drug on the HCT116 tumor heterotopic transplantation mouse model.
# G2: positive drug adriamycin (commercially available); and
# G3: 4arm PEG-L5-Dox (prepared in Example 22).
# An original culture solution was removed by suction after HCT116 cells (commercially available) were received, and 10 mL of fresh culture solution was added. The cells were collected and passaged when 90% of the cells were converged. After the culture solution was removed, 10 ml of EDTA/PBS solution was added and placed at room temperature for 5 minutes, and then the EDTA/PBS solution was removed by suction. […] The cells was counted with a counting plate and diluted with DMEM containing 10% FBS. […]
# The cell suspension was changed in advance when it was detected that 80% of the cells were converged on the inoculation day of the cells. […] The cells were counted with a counting plate and diluted with PBS to a concentration of 2*10^7 cells/mL, and then the cells were placed on ice until inoculation.
# HCT116 cells were subcutaneously inoculated in a right front axilla of a mouse. […] Tumor volumes were measured twice a week after inoculation, and when an average tumor volume reached 100 to 200 mm^3, 18 mice with similar tumor sizes were selected and randomly divided into 3 groups with 6 mice in each group. […]
smiles,measurement,value
COc1cccc2c1C(=O)c1c(O)c3c(c(O)c1C2=O)C[C@@](O)(C(=O)CO)C[C@@H]3O[C@H]1C[C@H](N)[C@H](O)[C@H](C)O1 [adriamycin],Anti-tumor effect,obvious anti-tumor effects
